The target in test [1] is BTK (Homo sapiens (Human), UniProt Q06187). Nature of the test: Omnia assay for potency assessment against BTK. In kind it is biochemical. Conditions: [BTK]=5 nM, Omnia assay; read-out: BTK Inhibition (IC50). As for the experimental part:
The modified BTK-optimized reagent conditions for the above protocol are:
[BTK]=5 nM, [ATP]=[…], [Y5-Sox]=[…] (ATP KMapp˜[…]).

For test [2], the target named is EGFR-WT (Homo sapiens (Human), UniProt P00533). Nature of the test: Omnia assay for potency assessment against EGFR (WT).
[3] abbreviates: read-out: EGFR (wild type inhibition), EGFR wild type.

pIC50: −log10 of the molar value. Like-named read-outs stand apart in the source and are kept apart here.

Chain of EGFR-WT (P00533 668-1210): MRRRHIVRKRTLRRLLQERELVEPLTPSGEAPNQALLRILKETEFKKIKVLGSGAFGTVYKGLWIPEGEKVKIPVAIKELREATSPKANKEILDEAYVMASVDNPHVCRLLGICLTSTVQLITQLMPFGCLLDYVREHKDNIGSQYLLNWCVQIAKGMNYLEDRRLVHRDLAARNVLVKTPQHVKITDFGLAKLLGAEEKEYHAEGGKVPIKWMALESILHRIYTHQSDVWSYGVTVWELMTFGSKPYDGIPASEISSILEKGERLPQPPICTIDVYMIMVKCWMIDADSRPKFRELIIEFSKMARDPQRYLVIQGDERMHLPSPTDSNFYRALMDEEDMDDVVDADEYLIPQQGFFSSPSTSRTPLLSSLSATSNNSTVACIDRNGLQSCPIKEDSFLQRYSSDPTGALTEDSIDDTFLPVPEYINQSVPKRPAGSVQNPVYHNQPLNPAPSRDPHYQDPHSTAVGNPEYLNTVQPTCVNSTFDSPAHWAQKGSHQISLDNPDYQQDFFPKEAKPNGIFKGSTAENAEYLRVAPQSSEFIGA
Chain of BTK (Q06187 whole entry): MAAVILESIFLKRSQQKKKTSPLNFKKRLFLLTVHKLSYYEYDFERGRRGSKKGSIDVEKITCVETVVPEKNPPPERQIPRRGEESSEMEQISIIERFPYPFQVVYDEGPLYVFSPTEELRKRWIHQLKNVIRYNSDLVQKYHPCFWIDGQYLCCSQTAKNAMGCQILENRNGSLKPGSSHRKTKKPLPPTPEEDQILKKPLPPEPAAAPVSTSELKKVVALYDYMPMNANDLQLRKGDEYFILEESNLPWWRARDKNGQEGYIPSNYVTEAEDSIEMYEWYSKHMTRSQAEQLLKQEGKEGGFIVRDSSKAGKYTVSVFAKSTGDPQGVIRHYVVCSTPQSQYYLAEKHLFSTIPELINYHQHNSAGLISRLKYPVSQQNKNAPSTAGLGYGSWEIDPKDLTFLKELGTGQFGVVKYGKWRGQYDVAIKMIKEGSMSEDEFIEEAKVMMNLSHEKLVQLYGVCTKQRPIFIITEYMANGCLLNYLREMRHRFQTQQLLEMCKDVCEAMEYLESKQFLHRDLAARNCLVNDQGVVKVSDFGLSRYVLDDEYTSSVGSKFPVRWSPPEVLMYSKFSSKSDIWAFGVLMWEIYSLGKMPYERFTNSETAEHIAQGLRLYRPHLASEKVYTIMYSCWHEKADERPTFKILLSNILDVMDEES

Turning to `C=CC(=O)N1CCC[C@H](Nc2nc(Nc3cccc(OC)c3)ncc2F)C1` [Compound I-196, (S)-1-(3-(5-fluoro-2-(3-methoxyphenylamino)pyrimidin-4-ylamino)piperidin-1-yl)prop-2-en-1-one], the figures for the pIC50 in test [1] and in test [2] (setting [3]) were 7.00 to 8.00 and 5.00 to 6.00, respectively.
Turning to `C=CC(=O)N1CCC(Nc2nc(Nc3ccc(OC)nc3)ncc2F)C1` (stereo not shown) [Compound I-203, 1-(3-(5-fluoro-2-(6-methoxypyridin-3-ylamino)pyrimidin-4-ylamino)pyrrolidin-1-yl)prop-2-en-1-one], the pIC50 was 7.00 to 8.00 in test [1] and 6.00 to 7.00 in test [2].
Regarding `C=CC(=O)NCc1cccc(Nc2nc(Nc3ccccc3)ncc2C)c1` [Compound I-205, N-(3-(5-methyl-2-(phenylamino)pyrimidin-4-ylamino)benzyl)acrylamide], the pIC50 in test [1] and in test [2] was 7.00 to 8.00 in each case.
For `CC(C)=CC(=O)c1ccc(Nc2nc(Nc3ccccc3)ncc2F)cc1` [Compound I-206, 1-(4-(5-fluoro-2-(phenylamino)pyrimidin-4-ylamino)phenyl)-3-methylbut-2-en-1-one], the pIC50 is less than 5.00 in test [1] and 5.00 to 6.00 in test [2] (setting [3]).
The like results for `C#CCOc1cccc(Nc2ncc(F)c(Nc3cccc(C(=O)C=C(C)C)c3)n2)c1` [Compound I-211, 1-(3-(5-fluoro-2-(3-(prop-2-ynyloxy)phenylamino)pyrimidin-4-ylamino)phenyl)-3-methylbut-2-en-1-one] were, in that order, 5.00 to 6.00 and 5.00 to 6.00.
The like results for `C=CC(=O)Nc1cccc(Nc2ncc(F)c(Oc3ccc(Oc4ccccc4)cc3)n2)c1` [Compound I-212] were, in that order, 5.00 to 6.00 and 5.00 to 6.00.
For the molecule `C=CC(=O)Nc1ccc(Nc2nc(Nc3cncc(OC)c3)ncc2C(F)(F)F)cc1` [Compound I-214, N-(4-(5-trifluoromethyl-2-(5-methoxypyridin-3-ylamino)pyrimidin-4-ylamino)phenyl)acrylamide], the pIC50 in test [1] is 7.00 to 8.00; in test [2], 6.00 to 7.00.
The like results for `C=CC(=O)Nc1cccc(Nc2nc(Nc3ccccc3)ncc2C(=O)NC2CC2)c1` [Compound I-221, 4-(3-acrylamidophenylamino)-N-cyclopropyl-2-(phenylamino)pyrimidine-5-carboxamide] were, in that order, 7.00 to 8.00 and 7.00 to 8.00.
Turning to `CC(C)=CC(=O)c1cccc(Nc2nc(Nc3cccc(OC(F)(F)F)c3)ncc2F)c1` [Compound I-223, 1-(3-(5-fluoro-2-(3-(trifluoromethoxy)phenylamino)pyrimidin-4-ylamino)phenyl)-3-methylbut-2-en-1-one], the pIC50 in test [1] was less than 5.00; in test [2] (setting [3]), 5.00 to 6.00.
`CC(C)=CC(=O)c1cccc(Nc2nc(Nc3cccc(S(N)(=O)=O)c3)ncc2C)c1` [Compound I-224, 1-(3-(5-methyl-2-(3-aminosulfonylphenylamino)pyrimidin-4-ylamino)phenyl)-3-methylbut-2-en-1-one]: the pIC50 in test [1] is 7.00 to 8.00; in test [2], 6.00 to 7.00.
Regarding `CC(C)=CC(=O)c1cccc(Nc2nc(Nc3ccccc3)ncc2C)c1` [Compound I-232, 3-methyl-1-(3-(5-methyl-2-(phenylamino)pyrimidin-4-ylamino)phenyl)but-2-en-1-one], the values for the pIC50 in test [1] and in test [2] (setting [3]) were 7.00 to 8.00 and 5.00 to 6.00, respectively.
The matching figures for `C=CC(=O)Nc1cccc(Nc2nc(Nc3cccnc3)ncc2F)c1` [Compound I-234, N-(3-(5-fluoro-2-(pyridin-3-ylamino)pyrimidin-4-ylamino)phenyl)acrylamide]: 5.00 to 6.00 and less than 5.00.
The matching figures for `C=CC(=O)Nc1ccc(Nc2nc(Nc3cccc(OC)c3)ncc2C(F)(F)F)cc1` [Compound I-236, N-(4-(5-trifluoromethyl-2-(3-methoxyphenylamino)pyrimidin-4-ylamino)phenyl)acrylamide]: 7.00 to 8.00 and 5.00 to 6.00.
As for `C=CC(=O)Nc1cccc(Nc2nc(NC3CCCN(C(C)=O)C3)ncc2F)c1` (stereo not shown) [Compound I-238, N-(3-(2-(1-acetylpiperidin-3-ylamino)-5-fluoropyrimidin-4-ylamino)phenyl)acrylamide], the pIC50 in test [1] was 5.00 to 6.00; in test [2] (setting [3]) it was less than 5.00.
`C=CC(=O)Nc1cccc(Nc2nc(NCc3ccc(OC)cc3)ncc2F)c1` [Compound I-241, N-(3-(5-fluoro-2-(4-methoxybenzylamino)pyrimidin-4-ylamino)phenyl)acrylamide]: the pIC50 in test [1] and in test [2] (setting [3]) was 5.00 to 6.00 in each case.
For the molecule `C/C=C/C(=O)OCc1cccc(Nc2nc(Nc3ccccc3)ncc2C)c1` [Compound I-246, (E)-3-(5-methyl-2-(phenylamino)pyrimidin-4-ylamino) benzyl but-2-enoate], the pIC50 in test [1] is 7.00 to 8.00; in test [2] (setting [3]), 5.00 to 6.00.
As to `C=C(C#N)C(O)c1cccc(Nc2nc(Nc3ccc(OCCOC)c(F)c3)ncc2F)c1` (stereo not shown) [Compound I-326, 2-((3-(5-fluoro-2-(3-fluoro-4-(2-methoxyethoxy)phenylamino)pyrimidin-4-ylamino)phenyl)(hydroxy)methyl)acrylonitrile], the pIC50 is greater than 8.00 in test [1] and 6.00 to 7.00 in test [2].
The like results for `C=C(C#N)C(O)c1ccc(Nc2nc(Nc3ccc(OCCOC)c(F)c3)ncc2F)cc1` (stereo not shown) [Compound I-327, 2-((4-(5-fluoro-2-(3-fluoro-4-(2-methoxyethoxy)phenylamino)pyrimidin-4-ylamino)phenyl)(hydroxy)methyl)acrylonitrile] were, in that order, greater than 8.00 and 7.00 to 8.00.
As for `C=C(C)C(=O)Cc1cccc(Nc2nc(Nc3ccc(OCCOC)c(F)c3)ncc2F)c1` [Compound I-328, 1-(3-(5-fluoro-2-(3-fluoro-4-(2-methoxyethoxy)phenylamino)pyrimidin-4-ylamino)phenyl)-3-methylbut-3-en-2-one], the pIC50 in test [1] and in test [2] (setting [3]) was greater than 8.00 each time.
Turning to `C=CC(=O)Nc1cccc(Nc2nc(Nc3ccc(OC(C)(C)CO)c(F)c3)ncc2F)c1` [Compound I-332, N-(3-(5-fluoro-2-(3-fluoro-4-(1-hydroxy-2-methylpropan-2-yloxy)phenylamino)pyrimidin-4-ylamino)phenyl)acrylamide], the pIC50 in test [1] was greater than 8.00; in test [2], 7.00 to 8.00.
As for `C=CC(=O)Nc1cccc(Nc2nc(Nc3ccc(OCC(O)CO)c(F)c3)ncc2F)c1` (stereo not shown) [Compound I-334, N-(3-(2-(4-(2,3-dihydroxypropoxy)-3-fluorophenylamino)-5-fluoropyrimidin-4-ylamino)phenyl)acrylamide], the pIC50 in test [1] and in test [2] (setting [3]) was greater than 8.00 throughout.
With `C=CC(=O)Nc1cccc(Nc2nc(Nc3ccc(OCC(O)CO)cc3)ncc2F)c1` (stereo not shown) [Compound I-335, N-(3-(2-(4-(2,3-dihydroxypropoxy)phenylamino)-5-fluoropyrimidin-4-ylamino)phenyl)acrylamide], the pIC50 in test [1] and in test [2] (setting [3]) was greater than 8.00 each time.
Turning to `C=CC(=O)Nc1cccc(Nc2nc(Nc3cccc(OCC(O)CO)c3)ncc2F)c1` (stereo not shown) [Compound I-339, N-(3-(2-(3-(2,3-dihydroxypropoxy)phenylamino)-5-fluoropyrimidin-4-ylamino)phenyl)acrylamide], the pIC50 in test [1] and in test [2] (setting [3]) was greater than 8.00 each time.
For the molecule `C=CC(=O)Nc1cccc(Nc2nc(Nc3ccc(Cl)c(O[C@@H]4CCOC4)c3)ncc2F)c1` [Compound I-341, (R)—N-(3-(2-(4-chloro-3-(tetrahydrofuran-3-yloxy)phenylamino)-5-fluoropyrimidin-4-ylamino)phenyl)acrylamide], the pIC50 is greater than 8.00 in test [1] and 6.00 to 7.00 in test [2].
`C=CC(=O)N1CCOc2ccc(Nc3ncc(F)c(Nc4ccc(OCc5ccccn5)c(Cl)c4)n3)cc21` [Compound I-343, 1-(6-(4-(3-chloro-4-(pyridine-2-ylmethoxy)phenylamino)-5-fluoropyrimidin-2-ylamino)-2H-benzo[b][1,4]oxazin-4(3H)-yl)prop-2-en-1-one]: the results for the pIC50 in test [1] and in test [2] were 7.00 to 8.00 and 6.00 to 7.00, respectively.
The matching figures for `C=CC(=O)N1CCC[C@@H](Nc2nc(Nc3ccc(OCCOC)c(F)c3)ncc2F)C1` [Compound I-344]: greater than 8.00 and 6.00 to 7.00.
The matching figures for `C=CC(=O)N1CCC[C@@H](Nc2nc(Nc3ccc(OCCOC)cc3)ncc2F)C1` [Compound I-345]: greater than 8.00 and 6.00 to 7.00.
The matching figures for `C=CC(=O)N1CCC[C@@H](Nc2nc(Nc3ccc(O[C@H]4CCOC4)cc3)ncc2F)C1` [Compound I-347, 1-((R)-3-(5-fluoro-2-(4-((S)-tetrahydrofuran-3-yloxy)phenylamino)pyrimidin-4-ylamino)piperidin-1-yl)prop-2-en-1-one]: greater than 8.00 and 7.00 to 8.00.
On to `C=CC(=O)N1CCC[C@@H](Nc2nc(Nc3ccc(O[C@@H]4CCOC4)cc3)ncc2F)C1` [Compound I-348, 1-((R)-3-(5-fluoro-2-(4-((R)-tetrahydrofuran-3-yloxy)phenylamino)pyrimidin-4-ylamino)piperidin-1-yl)prop-2-en-1-one], for which the results for the pIC50 in test [1] and in test [2] were greater than 8.00 and 7.00 to 8.00, respectively.
The matching figures for `C=CC(=O)Nc1cccc(Nc2nc(Nc3ccc4c(c3)OCCO4)ncc2F)c1` [Compound I-349]: greater than 8.00 and 7.00 to 8.00.
In the case of `C=CC(=O)Nc1cccc(Nc2nc(Nc3ccc(OCCOC)c(F)c3)ncc2C#N)c1` [Compound I-350, N-(3-(5-cyano-2-(3-fluoro-4-(2-methoxyethoxy)phenylamino)pyrimidin-4-ylamino)phenyl)acrylamide], the pIC50 in test [1] and in test [2] (setting [3]) was greater than 8.00 in each case.
With `C=CC(=O)Nc1ccc(Nc2nc(Nc3ccc(OCCOC)c(F)c3)ncc2F)cc1` [Compound I-351, N-(4-(5-fluoro-2-(3-fluoro-4-(2-methoxyethoxy)phenylamino)pyrimidin-4-ylamino)phenyl)acrylamide], the results for the pIC50 in test [1] and in test [2] were greater than 8.00 and 6.00 to 7.00, respectively.

The values are drawn from patent publication US9987276B2 (Celgene CAR LLC, priority 2008, dated 2018).
